Test results taken from patent EP4467141A1, “PYRAZOLO-QUINOLINES AS SELECTIVE INHIBITORS OF GENOTOXIC STRESS-INDUCED IKK/NF- KB PATHWAYS FOR CANCER THERAPY” (Max-Delbrück-Centrum für Molekulare Medizin in der …, priority 2023, dated 2024).

How the values were obtained:
Assay in all cases: Kinase panel study
Format in all cases: biochemical
Conditions in all cases: read-out: Percentage of inhibition; for inhibition at 1 µM: 1000nM; for inhibition at 10 µM: 10000nM
MAPK1 (ERK2) = biological target: T1, MAPK1 (ERK2) (Homo sapiens, UniProt P28482)
T1 construct: purchased Thermo Fisher Scientific
Summary of the method: (§1)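 Inhibition was measured in an outsourced in vitro kinase panel using the ZLyte or Adapta format under the provider's standard procedures. Values are percent inhibition at 10 µM or 1 µM compound, and IC50s were also obtained.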

ABL1 E255K = biological target: T2, ABL1 E255K (Homo sapiens, UniProt P00519, E255K)
T2 construct: purchased Thermo Fisher Scientific
Summary of the method: as §1

SGK (SGK1) = biological target: T3, SGK (SGK1) (Homo sapiens, UniProt O00141)
T3 construct: purchased Thermo Fisher Scientific
T3 sequence (O00141 1-431): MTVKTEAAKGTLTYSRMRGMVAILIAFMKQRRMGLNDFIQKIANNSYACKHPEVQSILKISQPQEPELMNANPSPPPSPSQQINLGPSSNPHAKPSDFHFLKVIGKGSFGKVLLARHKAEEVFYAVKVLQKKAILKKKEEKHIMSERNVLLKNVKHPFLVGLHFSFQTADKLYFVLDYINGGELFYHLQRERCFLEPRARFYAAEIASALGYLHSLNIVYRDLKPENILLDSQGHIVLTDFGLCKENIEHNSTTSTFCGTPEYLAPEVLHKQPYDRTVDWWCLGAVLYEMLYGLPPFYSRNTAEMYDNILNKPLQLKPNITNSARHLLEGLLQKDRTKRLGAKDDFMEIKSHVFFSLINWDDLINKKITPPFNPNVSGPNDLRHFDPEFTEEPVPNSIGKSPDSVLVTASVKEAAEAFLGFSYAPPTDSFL
Summary of the method: as §1

RET = biological target: T4, RET (Homo sapiens, UniProt P07949)
T4 construct: purchased Thermo Fisher Scientific
Summary of the method: as §1

LYN A = biological target: T5, LYN A (Homo sapiens, UniProt P07948)
T5 construct: purchased Thermo Fisher Scientific
Summary of the method: as §1

NTRK3 (TRKC) = biological target: T6, NTRK3 (TRKC) (Homo sapiens, UniProt Q16288)
T6 construct: purchased Thermo Fisher Scientific
Summary of the method: as §1

FGFR2 = biological target: T7, FGFR2 (Homo sapiens, UniProt P21802)
T7 construct: purchased Thermo Fisher Scientific
Summary of the method: as §1

ROCK2 = biological target: T8, ROCK2 (Homo sapiens, UniProt O75116)
T8 construct: purchased Thermo Fisher Scientific
Summary of the method: as §1

TYRO3 (RSE) = biological target: T9, TYRO3 (RSE) (Homo sapiens, UniProt Q06418)
T9 construct: purchased Thermo Fisher Scientific
T9 sequence (Q06418 41-890): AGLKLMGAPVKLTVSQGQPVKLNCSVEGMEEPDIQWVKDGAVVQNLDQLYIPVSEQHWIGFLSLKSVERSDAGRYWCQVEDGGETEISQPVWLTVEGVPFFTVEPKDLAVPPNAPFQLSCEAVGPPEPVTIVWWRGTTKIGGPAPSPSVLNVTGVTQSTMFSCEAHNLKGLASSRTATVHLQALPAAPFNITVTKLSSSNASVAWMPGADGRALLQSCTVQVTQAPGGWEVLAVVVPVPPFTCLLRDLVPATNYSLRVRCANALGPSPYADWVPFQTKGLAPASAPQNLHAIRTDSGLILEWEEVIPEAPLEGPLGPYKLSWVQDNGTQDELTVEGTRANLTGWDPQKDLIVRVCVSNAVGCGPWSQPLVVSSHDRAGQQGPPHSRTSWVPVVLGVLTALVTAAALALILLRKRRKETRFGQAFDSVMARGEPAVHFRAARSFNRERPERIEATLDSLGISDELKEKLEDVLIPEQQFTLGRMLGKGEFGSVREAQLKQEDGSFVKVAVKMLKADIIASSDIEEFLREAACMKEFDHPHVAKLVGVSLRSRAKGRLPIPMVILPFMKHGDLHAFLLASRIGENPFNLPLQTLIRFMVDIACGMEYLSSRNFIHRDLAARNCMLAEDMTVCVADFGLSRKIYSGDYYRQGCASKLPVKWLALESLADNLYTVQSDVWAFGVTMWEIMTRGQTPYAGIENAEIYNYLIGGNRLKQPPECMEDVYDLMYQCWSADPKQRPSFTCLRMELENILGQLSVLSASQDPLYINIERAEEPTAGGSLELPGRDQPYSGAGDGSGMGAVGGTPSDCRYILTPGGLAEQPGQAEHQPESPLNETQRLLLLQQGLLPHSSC
Summary of the method: as §1

T5 sequence (P07948 whole entry): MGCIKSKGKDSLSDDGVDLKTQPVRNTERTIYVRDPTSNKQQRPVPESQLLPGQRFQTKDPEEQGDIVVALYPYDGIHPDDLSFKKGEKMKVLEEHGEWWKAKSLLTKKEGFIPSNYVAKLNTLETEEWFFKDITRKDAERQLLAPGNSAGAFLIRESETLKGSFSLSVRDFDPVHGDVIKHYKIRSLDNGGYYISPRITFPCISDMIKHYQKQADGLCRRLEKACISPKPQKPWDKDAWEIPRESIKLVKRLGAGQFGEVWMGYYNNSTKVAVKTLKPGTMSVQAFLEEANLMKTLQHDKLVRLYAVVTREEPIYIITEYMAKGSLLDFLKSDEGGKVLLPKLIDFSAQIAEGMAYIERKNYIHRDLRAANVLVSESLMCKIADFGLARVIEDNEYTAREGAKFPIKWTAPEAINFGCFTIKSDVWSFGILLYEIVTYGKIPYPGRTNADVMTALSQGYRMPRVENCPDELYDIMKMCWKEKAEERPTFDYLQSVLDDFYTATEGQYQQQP
T7 sequence (P21802 22-821): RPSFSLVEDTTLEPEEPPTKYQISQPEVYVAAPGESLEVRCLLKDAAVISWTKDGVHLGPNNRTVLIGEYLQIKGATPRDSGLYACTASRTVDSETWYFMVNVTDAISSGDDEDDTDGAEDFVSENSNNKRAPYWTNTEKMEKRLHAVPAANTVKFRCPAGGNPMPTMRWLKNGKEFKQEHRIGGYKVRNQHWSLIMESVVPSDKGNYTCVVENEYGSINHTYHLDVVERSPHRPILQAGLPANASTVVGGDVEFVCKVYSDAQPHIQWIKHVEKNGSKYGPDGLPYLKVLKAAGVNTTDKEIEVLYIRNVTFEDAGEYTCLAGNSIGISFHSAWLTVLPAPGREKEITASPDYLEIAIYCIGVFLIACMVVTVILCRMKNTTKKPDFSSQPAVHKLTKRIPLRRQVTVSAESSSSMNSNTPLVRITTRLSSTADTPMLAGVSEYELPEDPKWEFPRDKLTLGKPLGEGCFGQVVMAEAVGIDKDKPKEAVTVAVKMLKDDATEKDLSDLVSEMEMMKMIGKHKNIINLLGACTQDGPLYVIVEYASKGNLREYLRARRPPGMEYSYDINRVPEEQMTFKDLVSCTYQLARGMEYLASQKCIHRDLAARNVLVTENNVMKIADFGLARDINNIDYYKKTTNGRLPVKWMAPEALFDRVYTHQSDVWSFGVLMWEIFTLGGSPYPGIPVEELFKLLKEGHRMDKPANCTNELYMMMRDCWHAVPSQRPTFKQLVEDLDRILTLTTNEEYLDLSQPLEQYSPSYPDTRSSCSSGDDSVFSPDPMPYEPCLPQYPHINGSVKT
T4 sequence (P07949 29-1114): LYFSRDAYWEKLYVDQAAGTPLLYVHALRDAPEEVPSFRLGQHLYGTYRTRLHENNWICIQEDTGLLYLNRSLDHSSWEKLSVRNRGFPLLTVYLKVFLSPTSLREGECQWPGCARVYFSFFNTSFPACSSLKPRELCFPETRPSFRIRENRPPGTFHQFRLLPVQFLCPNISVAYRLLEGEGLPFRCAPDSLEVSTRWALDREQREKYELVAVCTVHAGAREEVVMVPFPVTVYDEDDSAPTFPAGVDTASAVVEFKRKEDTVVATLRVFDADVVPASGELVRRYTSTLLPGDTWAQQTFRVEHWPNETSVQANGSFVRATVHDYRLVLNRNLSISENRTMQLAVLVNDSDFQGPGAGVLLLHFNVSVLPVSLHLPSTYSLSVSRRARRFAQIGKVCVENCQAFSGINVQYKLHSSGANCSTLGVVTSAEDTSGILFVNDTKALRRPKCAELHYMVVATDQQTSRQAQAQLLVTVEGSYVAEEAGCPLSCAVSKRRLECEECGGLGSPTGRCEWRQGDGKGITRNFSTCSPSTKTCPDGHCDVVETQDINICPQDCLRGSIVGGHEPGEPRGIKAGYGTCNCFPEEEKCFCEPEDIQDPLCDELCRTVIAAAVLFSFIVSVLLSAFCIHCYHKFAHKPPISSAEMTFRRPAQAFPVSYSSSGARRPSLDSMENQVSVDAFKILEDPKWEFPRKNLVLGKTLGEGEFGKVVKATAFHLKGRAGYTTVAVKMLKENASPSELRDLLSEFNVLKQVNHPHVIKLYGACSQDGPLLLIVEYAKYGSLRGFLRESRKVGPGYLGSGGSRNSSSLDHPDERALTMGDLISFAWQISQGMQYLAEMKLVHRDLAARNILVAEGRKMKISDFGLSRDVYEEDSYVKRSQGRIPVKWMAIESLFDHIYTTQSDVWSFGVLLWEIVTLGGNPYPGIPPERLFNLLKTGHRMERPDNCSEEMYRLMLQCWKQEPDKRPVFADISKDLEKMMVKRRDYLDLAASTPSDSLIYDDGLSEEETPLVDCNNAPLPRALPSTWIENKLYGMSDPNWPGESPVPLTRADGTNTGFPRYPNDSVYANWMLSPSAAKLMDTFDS
T1 sequence (P28482 whole entry): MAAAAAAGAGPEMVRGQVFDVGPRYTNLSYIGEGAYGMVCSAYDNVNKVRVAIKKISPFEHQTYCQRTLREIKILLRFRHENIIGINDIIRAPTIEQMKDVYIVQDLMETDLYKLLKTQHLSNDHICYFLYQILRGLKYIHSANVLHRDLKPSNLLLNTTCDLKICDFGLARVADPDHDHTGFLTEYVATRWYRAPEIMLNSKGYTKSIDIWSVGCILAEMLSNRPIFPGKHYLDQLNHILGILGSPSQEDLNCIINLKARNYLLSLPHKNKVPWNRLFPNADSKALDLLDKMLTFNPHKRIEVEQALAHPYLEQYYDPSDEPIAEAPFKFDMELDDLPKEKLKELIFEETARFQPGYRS
T2 sequence (P00519 whole entry E255K): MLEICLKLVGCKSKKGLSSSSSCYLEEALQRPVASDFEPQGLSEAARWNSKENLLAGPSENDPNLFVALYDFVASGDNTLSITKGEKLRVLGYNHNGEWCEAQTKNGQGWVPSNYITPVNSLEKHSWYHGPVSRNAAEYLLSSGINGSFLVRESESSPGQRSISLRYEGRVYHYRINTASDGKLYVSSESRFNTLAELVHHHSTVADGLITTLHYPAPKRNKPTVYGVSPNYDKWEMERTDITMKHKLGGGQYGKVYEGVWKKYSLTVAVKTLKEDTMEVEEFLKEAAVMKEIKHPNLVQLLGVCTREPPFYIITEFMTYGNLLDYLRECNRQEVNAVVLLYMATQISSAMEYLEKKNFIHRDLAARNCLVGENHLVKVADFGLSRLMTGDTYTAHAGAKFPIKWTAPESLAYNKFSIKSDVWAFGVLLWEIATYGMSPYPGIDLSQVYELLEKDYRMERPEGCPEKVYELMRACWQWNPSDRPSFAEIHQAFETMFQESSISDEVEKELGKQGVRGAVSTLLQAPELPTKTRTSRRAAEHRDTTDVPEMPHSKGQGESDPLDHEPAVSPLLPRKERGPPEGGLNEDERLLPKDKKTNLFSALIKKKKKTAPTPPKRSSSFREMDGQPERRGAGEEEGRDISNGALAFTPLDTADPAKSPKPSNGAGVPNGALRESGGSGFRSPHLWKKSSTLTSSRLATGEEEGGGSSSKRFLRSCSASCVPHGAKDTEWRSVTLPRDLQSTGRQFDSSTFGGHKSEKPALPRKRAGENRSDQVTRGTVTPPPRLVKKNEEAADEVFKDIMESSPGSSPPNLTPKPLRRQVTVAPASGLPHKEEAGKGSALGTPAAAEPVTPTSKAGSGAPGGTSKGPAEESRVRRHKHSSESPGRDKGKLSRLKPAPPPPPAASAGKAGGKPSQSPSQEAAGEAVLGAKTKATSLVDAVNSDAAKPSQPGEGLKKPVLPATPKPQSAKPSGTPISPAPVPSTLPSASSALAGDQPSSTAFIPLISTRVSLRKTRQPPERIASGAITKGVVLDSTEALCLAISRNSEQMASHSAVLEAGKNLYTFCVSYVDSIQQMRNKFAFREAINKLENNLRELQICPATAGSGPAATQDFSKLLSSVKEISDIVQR
T6 sequence (Q16288 32-839): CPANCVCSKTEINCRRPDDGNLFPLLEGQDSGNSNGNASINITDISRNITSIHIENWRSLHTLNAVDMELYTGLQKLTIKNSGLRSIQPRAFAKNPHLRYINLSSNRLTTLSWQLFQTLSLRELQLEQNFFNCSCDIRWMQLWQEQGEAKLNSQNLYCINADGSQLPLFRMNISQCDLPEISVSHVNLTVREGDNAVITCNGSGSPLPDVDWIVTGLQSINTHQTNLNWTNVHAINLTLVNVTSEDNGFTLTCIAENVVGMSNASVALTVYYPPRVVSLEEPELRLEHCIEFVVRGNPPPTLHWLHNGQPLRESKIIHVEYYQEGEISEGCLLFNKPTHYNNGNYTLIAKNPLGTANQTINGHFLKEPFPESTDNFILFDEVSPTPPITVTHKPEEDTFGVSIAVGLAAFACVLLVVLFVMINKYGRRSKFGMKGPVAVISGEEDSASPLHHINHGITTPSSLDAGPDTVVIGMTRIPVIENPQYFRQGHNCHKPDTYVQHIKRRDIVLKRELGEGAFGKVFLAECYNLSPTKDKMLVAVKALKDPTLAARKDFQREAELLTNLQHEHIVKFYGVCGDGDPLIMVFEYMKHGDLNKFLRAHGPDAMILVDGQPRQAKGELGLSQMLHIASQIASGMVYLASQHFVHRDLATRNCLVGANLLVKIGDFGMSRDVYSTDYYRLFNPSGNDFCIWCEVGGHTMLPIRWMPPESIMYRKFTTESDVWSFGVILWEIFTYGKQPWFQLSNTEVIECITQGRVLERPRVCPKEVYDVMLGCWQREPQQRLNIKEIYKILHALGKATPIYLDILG

Row | SMILES | inhibition at 1 µM (MAPK1 (ERK2)) [%] | inhibition at 10 µM (MAPK1 (ERK2)) [%] | inhibition at 1 µM (ABL1 E255K) [%] | inhibition at 10 µM (ABL1 E255K) [%] | inhibition at 1 µM (SGK (SGK1)) [%] | inhibition at 10 µM (SGK (SGK1)) [%] | inhibition at 1 µM (RET) [%] | inhibition at 10 µM (RET) [%] | inhibition at 1 µM (LYN A) [%] | inhibition at 10 µM (LYN A) [%] | inhibition at 1 µM (NTRK3 (TRKC)) [%] | inhibition at 10 µM (NTRK3 (TRKC)) [%] | inhibition at 1 µM (FGFR2) [%] | inhibition at 10 µM (FGFR2) [%] | inhibition at 1 µM (ROCK2) [%] | inhibition at 10 µM (ROCK2) [%] | inhibition at 1 µM (TYRO3 (RSE)) [%] | inhibition at 10 µM (TYRO3 (RSE)) [%]
1 | COc1ccc2c(c1OC)c(=O)n1c3ccc(O)cc3c3ccnc2c31 [MW01, 5-Hydroxy-10,11-dimethoxy-9H-benzo[c]indolo[3,2,1-ij][1,5]naphthyridin-9-one] | 4 | 9 | 7 | 11 | -4 | 15 | 15 | 34 | 5 | 18 | 42 | 66 | 13 | 11 | 14 | 18 | 11 | 29
2 | COc1ccc2cc3c(N)nn(C(=O)c4cccc(N(C)C)c4)c3nc2c1 [MW05, (3-Amino-7-methoxypyrazolo[3,4-b]quinolin-1-yl)-[3-(dimethylamino)phenyl]methanone] | 5 | 7 | 6 | 5 | -2 | -12 | 9 | 12 | 1 | -6 | 10 | 11 | 0 | -5 | 14 | 4 | 7 | 2
